Assay results reported in patent US11639353B2, “Cyclobutanes- and azetidine-containing mono and spirocyclic compounds as αV integrin inhibitors” (BRISTOL-MYERS SQUIBB COMPANY, priority 2016, dated 2023).
pIC50: −log10 of the molar value.

Target: T1, human αVβ6 (Homo sapiens, UniProt P06756+P18564)
T1 construct: purchased R & D systems 3817-AV
Test: human αVβ6 HTRF binding assay
Conditions: alternatively SPA-based assay
Protocol: All binding assays used the HTRF (homogeneous time resolved fluorescence) technology from Cisbio International, therefore all assays are described as HTRF binding assays. The assay results for the Examples are listed above together with the characterization data. The HTRF binding assays are established for the following integrins: human αVβ6, human αVβ1, human αVβ3, human αVβ5, and human αVβ8. All assays used the following assay buffer: 20 mM Tris, pH 7.4, 1 mM MgCl2, 1 mM MnCl2, 0.01% Tween 20, and 0.01% BSA. Alternatively, a SPA-based assay was used for evaluation of receptor binding.
The following describes the components and a representative procedure for the human αVβ6 HTRF binding assay: Recombinant human αVβ6 Integrin (R & D systems, 3817-AV) was biotinylated. Biotinylated human αVβ6 Integrin was added to assay vessel at a final concentration of 1.25 nM. FITC-conjugated fibronectin (Cytoskeleton, FNR02) was then added at the final concentration of 5 nM. The mixture was centrifuged at 600 rpm for three minutes using Thermo Fisher Heraeus Multifuge X3 centrifuge and then incubated at RT for an hour. Streptavidin Terbium (Cisbio international 610STLB) was then added at the final concentration of 0.625 nM. The resulting mixture was centrifuged at 600 rpm for three minutes using Thermo Fisher Heraeus Multifuge X3 centrifuge and then incubated at room temperature overnight in dark before reading HTRF signals.
The SPA-based assay was carried out according to the protocol and procedures similar to the ones described in the following reference with appropriate modifications to agents and ligands which are readily understood by one skilled in the art: Pachter J A, Zhang R, Mayer-Ezell R., “Scintillation proximity assay to measure binding of soluble fibronectin to antibody-captured αVβ1 integrin” Anal Biochem. 1995 Sep. 1; 230(1):101-7.

T1 sequence (P06756 31-992 limits assumed): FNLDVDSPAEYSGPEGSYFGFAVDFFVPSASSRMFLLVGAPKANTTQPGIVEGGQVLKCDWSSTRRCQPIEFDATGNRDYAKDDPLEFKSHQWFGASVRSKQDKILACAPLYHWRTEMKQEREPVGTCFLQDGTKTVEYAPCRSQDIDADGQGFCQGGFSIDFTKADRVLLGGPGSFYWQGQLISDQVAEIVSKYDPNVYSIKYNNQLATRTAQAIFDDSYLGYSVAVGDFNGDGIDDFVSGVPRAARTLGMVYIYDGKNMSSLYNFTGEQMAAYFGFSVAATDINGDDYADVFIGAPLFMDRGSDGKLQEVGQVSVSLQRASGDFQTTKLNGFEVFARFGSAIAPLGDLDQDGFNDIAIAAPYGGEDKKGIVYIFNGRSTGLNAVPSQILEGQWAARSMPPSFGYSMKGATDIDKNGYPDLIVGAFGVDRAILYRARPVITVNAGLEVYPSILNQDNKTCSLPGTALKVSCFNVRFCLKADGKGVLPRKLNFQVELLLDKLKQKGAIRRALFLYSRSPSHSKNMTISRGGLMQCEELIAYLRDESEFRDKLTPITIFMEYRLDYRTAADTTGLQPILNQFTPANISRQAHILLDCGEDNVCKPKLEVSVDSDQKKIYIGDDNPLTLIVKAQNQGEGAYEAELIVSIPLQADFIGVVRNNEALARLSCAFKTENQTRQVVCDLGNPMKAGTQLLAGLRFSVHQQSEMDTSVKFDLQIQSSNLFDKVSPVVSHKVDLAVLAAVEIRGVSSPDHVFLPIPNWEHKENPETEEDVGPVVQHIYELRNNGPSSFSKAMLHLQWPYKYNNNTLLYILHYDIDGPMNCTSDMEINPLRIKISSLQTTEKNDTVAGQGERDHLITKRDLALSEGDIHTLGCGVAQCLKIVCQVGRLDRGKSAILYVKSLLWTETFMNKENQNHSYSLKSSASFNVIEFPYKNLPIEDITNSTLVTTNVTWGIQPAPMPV
T1 sequence (P18564 22-707 limits assumed): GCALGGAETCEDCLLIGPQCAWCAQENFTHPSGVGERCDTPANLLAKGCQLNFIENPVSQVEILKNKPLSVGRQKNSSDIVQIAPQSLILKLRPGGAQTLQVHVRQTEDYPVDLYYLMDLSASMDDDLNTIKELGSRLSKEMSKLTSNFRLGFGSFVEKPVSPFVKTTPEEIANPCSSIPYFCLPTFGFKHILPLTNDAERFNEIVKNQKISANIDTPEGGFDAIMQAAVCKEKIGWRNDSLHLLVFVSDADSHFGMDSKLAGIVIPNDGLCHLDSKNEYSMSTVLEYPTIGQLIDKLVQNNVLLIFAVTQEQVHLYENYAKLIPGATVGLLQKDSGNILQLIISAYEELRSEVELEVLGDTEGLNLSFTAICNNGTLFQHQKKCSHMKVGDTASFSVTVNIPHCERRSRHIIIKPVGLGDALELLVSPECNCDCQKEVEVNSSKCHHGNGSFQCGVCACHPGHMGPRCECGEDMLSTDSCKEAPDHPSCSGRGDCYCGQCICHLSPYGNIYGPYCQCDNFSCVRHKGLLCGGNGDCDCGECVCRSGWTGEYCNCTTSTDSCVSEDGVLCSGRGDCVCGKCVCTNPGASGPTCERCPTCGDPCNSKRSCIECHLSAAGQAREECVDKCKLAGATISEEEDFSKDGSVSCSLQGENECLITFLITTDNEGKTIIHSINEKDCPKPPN

pIC50 | Compound
8.62 | COc1ccc([C@H](CC(=O)O)N2CC(CCCCc3ccc4c(n3)NCCC4)C2=O)cn1 (stereo partly drawn) [Example 68]
9.30 | COc1ccc([C@H](CC(=O)O)NC(=O)[C@H]2C[C@@H](CCc3ccc4c(n3)NCCC4)C2)cc1F [Example 54]
6.71 | O=C(N[C@@H](CNC(=O)[C@H]1C[C@@H](Cc2ccc3c(n2)NCCC3)C1)C(=O)O)OCc1cccc(F)c1 (relative stereo) [Example 197]
8.66 | O=C(O)C[C@@H](c1cnc2ccccc2c1)N1CC(F)(CCCCc2ccc3c(n2)NCCC3)C1 [Example 166]
7.60 | COc1ccc([C@H](CC(=O)O)N2CC(CCCc3ccc4c(n3)NCCC4)C2=O)cn1 (single isomer, unassigned) [Example 181]
7.26 | COc1ccc([C@H](CC(=O)O)N2CC(CCCc3ccc4c(n3)NCCC4)C2=O)cc1F (single isomer, unassigned) [Example 179]
6.80 | CCOC(=O)[C@H](CNC(=O)C1CC2(C1)CN(CCc1ccc3c(n1)NCCC3)C2)NS(=O)(=O)c1c(C)cc(C)cc1C [Example 47]
8.70 | O=C(N[C@@H](CCN1CC2(CC(CCc3ccc4c(n3)NCCC4)C2)C1)C(=O)O)OCc1ccccc1 [Example 8, (S)-2-(((Benzyloxy)carbonyl)amino)-4-(6-(2-(5,6,7,8-tetrahydro-1,8-naphthyridin-2-yl)ethyl)-2-azaspiro[3.3]heptan-2-yl)butanoic acid]
8.01 | CC(=O)N(C1CN(CCCc2ccc3c(n2)NCCC3)C1)[C@@H](CC(=O)O)c1cc(Cl)cc(Cl)c1 [Example 21, (S)-3-(3,5-Dichlorophenyl)-3-(N-(1-(3-(5,6,7,8-tetrahydro-1,8-naphthyridin-2-yl)propyl)azetidin-3-yl)acetamido)propanoic acid]
7.85 | O=C(O)CC(c1cccc(N2CCOCC2)c1)C1CC(CCCCc2ccc3c(n2)NCCC3)C1 (stereo not drawn) [Example 146, 3-(3-Morpholinophenyl)-3-(3-(4-(5,6,7,8-tetrahydro-1,8-naphthyridin-2-yl)butyl)cyclobutyl)propanoic acid]
8.55 | Cc1cc(C)n(-c2cccc(C(CC(=O)O)N3CC4(CC(CCc5ccc6c(n5)NCCC6)C4)C3)c2)n1 (stereo not drawn) [Example 207]
8.66 | COc1ccc(C(CC(=O)O)N2CC3(CC(CCc4ccc5c(n4)NCCC5)C3)C2)cc1F (stereo not drawn) [Example 204, 3-(3-fluoro-4-methoxyphenyl)-3-(6-(2-(5,6,7,8-tetrahydro-1,8-naphthyridin-2-yl)ethyl)-2-azaspiro[3.3]heptan-2-yl)propanoic acid]
9.02 | COc1ccc([C@H](CC(=O)O)NC(=O)N2CC(F)(CCc3ccc4c(n3)NCCC4)C2)cc1F [Example 76]
8.60 | COc1ccc([C@H](CC(=O)O)N2CC(F)(CCCCc3ccc4c(n3)NCCC4)C2)cc1F [Example 165]
8.03 | O=C(N[C@@H](CNC(=O)C1CC2(C1)CN(CCc1ccc3c(n1)NCCC3)C2)C(=O)O)OCc1ccccc1 [Example 41]
8.66 | O=C(N[C@@H](CNC(=O)[C@H]1C[C@@H](Cc2ccc3c(n2)NCCC3)C1)C(=O)O)OCC1CCC1 [Example 199]
5.48 | O=C(O)C[C@H](NC(=O)C1CC2(CC(NC(=O)CCc3ccc4c(n3)NCCC4)C2)C1)c1cc(Cl)cc(Cl)c1 (stereo partly drawn) [Example 30]
8.59 | O=C(O)C[C@@H](c1ccc(F)c(F)c1)N1CC(F)(CCCCc2ccc3c(n2)NCCC3)C1 [Example 164]
6.99 | COc1ccc([C@H](CC(=O)O)N2CC(C)(CCCCc3ccc4c(n3)NCCC4)C2=O)cn1 (single isomer, unassigned) [Example 178]
8.70 | COc1ccc([C@H](CC(=O)O)N2CC(c3ccc(-c4ccc5c(n4)NCCC5)cc3)C2=O)cn1 (single isomer, unassigned) [Example 183]
8.96 | COc1ccc([C@H](CC(=O)O)N2CC(C)(CCCCc3ccc4c(n3)NCCC4)C2)cc1F [Example 158, (S)-3-(3-fluoro-4-methoxyphenyl)-3-(3-methyl-3-(4-(5,6,7,8-tetrahydro-1,8-naphthyridin-2-yl)butyl)azetidin-1-yl)propanoic acid]
9.15 | Cc1cc(C)c(S(=O)(=O)N[C@@H](CNC(=O)C2CN(CCCc3ccc4c(n3)NCCC4)C2)C(=O)O)c(C)c1 [Example 14, (S)-3-(1-(3-(5,6,7,8-Tetrahydro-1,8-naphthyridin-2-yl)propyl)azetidine-3-carboxamido)-2-(2,4,6-trimethylphenylsulfonamido)propanoic acid]

pIC50 | Compound
5.70 | O=C(O)C[C@H](NC(=O)C1CC2(CC(NC(=O)CCc3ccc4c(n3)NCCC4)C2)C1)c1cc(Cl)cc(Cl)c1 (stereo partly drawn) [Example 29]
8.40 | COc1ccc([C@H](CC(=O)O)N2CC(c3ccc(-c4ccc5c(n4)NCCC5)cc3)C2=O)cn1 (single isomer, unassigned) [Example 184]
8.55 | COc1ccc(CN(CCC(=O)O)C2CN(CCCc3ccc4c(n3)NCCC4)C2)cn1 [Example 23, 3-(((6-Methoxypyridin-3-yl)methyl)(1-(3-(5,6,7,8-tetrahydro-1,8-naphthyridin-2-yl)propyl)azetidin-3-yl)amino)propanoic acid]
8.70 | COc1ccc([C@H](CC(=O)O)N2CC(CCCc3ccc4c(n3)NCCC4)C2)cc1F [Example 168, (S)-3-(3-Fluoro-4-methoxyphenyl)-3-(3-(3-(5,6,7,8-tetrahydro-1,8-naphthyridin-2-yl)propyl)azetidin-1-yl)propanoic acid]
6.64 | COc1ccc([C@@H](CC(=O)O)C2(F)CN(C(=O)CCCc3ccc4c(n3)NCCC4)C2)cc1F [Example 95]
8.54 | O=C(O)C[C@H](NC(=O)[C@H]1C[C@@H](CCc2ccc3c(n2)NCCC3)C1)c1cncnc1 [Example 91]
7.17 | O=C(N[C@@H](CC(=O)N1CC(CCc2ccc3c(n2)NCCC3)C1)C(=O)O)OCC1CCC1 [Example 174, (S)-2-(((cyclobutylmethoxy)carbonyl)amino)-4-oxo-4-(3-(2-(5,6,7,8-tetrahydro-1,8-naphthyridin-2-yl)ethyl)azetidin-1-yl)butanoic acid]
8.92 | O=C(O)C[C@H](NC(=O)[C@H]1C[C@H](CCc2ccc3c(n2)NCCC3)C1)c1cc(Cl)cc(Cl)c1 [Example 92]
9.03 | O=C(O)C[C@H](NC(=O)C1(F)CN(CCc2ccc3c(n2)NCCC3)C1)c1ccc2c(c1)OCC2 [Example 81]
8.57 | O=C(O)C[C@@H](c1cnc2ccccc2c1)N1CC(CCCCc2ccc3c(n2)NCCC3)C1=O (stereo partly drawn) [Example 107]
8.19 | Cc1cc(C)c(S(=O)(=O)N[C@@H](CNC2CN(CCCc3ccc4c(n3)NCCC4)C2)C(=O)O)c(C)c1 [Example 73]
9.05 | O=C(O)C[C@@H](c1cc(Cl)cc(Cl)c1)N1CC(CCCCc2ccc3c(n2)NCCC3)C1=O (stereo partly drawn) [Example 109]
8.24 | COc1ncc([C@H](CC(=O)O)N2CC(CCCCc3ccc4c(n3)NCCC4)C2=O)cn1 (stereo partly drawn) [Example 70]
7.77 | COc1ccc([C@H](CC(=O)O)NC2CC3(C2)CN(CCc2ccc4c(n2)NCCC4)C3)cn1 [Example 75]
7.92 | O=C(O)C[C@@H](c1ccc(F)c(F)c1)N1CC(CCCCc2ccc3c(n2)NCCC3)C1=O (stereo partly drawn) [Example 113]
7.70 | N[C@@H](CNC(=O)C1CN(CCc2ccc3c(n2)NCCC3)C1)C(=O)O [Example 55]
8.52 | COc1ccc([C@H](CC(=O)O)NC(=O)C2CC(C(Cc3ccc4c(n3)NCCC4)NS(=O)(=O)c3ccc(C)cc3)C2)cc1F (stereo partly drawn) [Example 25, (3S)-3-(3-Fluoro-4-methoxyphenyl)-3-(3-(1-(4-methylphenylsulfonamido)-2-(5,6,7,8-tetrahydro-1,8-naphthyridin-2-yl)ethyl)cyclobutanecarboxamido)propanoic acid]
8.24 | O=C(O)CC(NC(=O)[C@H]1C[C@H](CCc2ccc3c(n2)NCCC3)C1)c1cnc(C(F)(F)F)nc1 (single isomer, unassigned) [Example 193, 3-(trans-3-(2-(5,6,7,8-Tetrahydro-1,8-naphthyridin-2-yl)ethyl)cyclobutane-1-carboxamido)-3-(2-(trifluoromethyl)pyrimidin-5-yl)propanoic acid]
8.57 | O=C(O)C[C@H](NC(=O)C1CC2(C1)CN(CCc1ccc3c(n1)NCCC3)C2)c1cc(Cl)cc(Cl)c1 [Example 33]
8.33 | O=C(O)CC(c1cnc2ccccc2c1)C1CC2(C1)CN(CCc1ccc3c(n1)NCCC3)C2 (stereo not drawn) [Example 101]
9.40 | O=C(N[C@@H](CNC(=O)C1CN(CCc2ccc3c(n2)NCCC3)C1)C(=O)O)OCc1ccccc1 [Example 43]
8.48 | Cc1ncc(C(CC(=O)O)N2CC3(CC(CCc4ccc5c(n4)NCCC5)C3)C2)cn1 (stereo not drawn) [Example 206]

Compound | pIC50
(S)-Ethyl 3-(6-methoxypyridin-3-yl)-3-(1-methyl-3-(2-(5,6,7,8-tetrahydro-1,8-naphthyridin-2-yl)ethyl)cyclobutanecarboxamido)propanoate [Example 16] | 8.59
